Test results: patent publication US20060052307A1, “Bone growth factor” (priority 2002, published 2006)
“And” between values parts separate entries of the source, which are not always exact repeats. Equal values may be shown once. Bridges are numbered along the chain shown (N, C = ends). Roman numbers before positions name the chains, in order. The star is where a group is joined. Cam = NC(=O)C*

Key:
Sprague-Dawley rats [1] = test: Bone mineral apposition rate after a single subcutaneous peptide injection, double tetracycline labelling, distal metaphysis of the right femur; format: in vivo, rat; design: Bone mineral apposition rate, group mean (Table 2): unit not given here; conditions: male rats; for BONE MINERAL APPOSITION, individual rats (Table 6) / Effect on bone mineral apposition / BONE MINERAL APPOSITION, MEAN (Table 6): Example 3, 300 nmoles/kg S.C.; for BONE MINERAL APPOSITION, MEAN (Table 6): control 1.62; for Effect on bone mineral apposition rate versus control / Bone mineral apposition rate, individual rats (Table 2) / Bone mineral apposition rate, group mean (Table 2): Example 1; for Bone mineral apposition rate, individual rats (Table 2) / Bone mineral apposition rate, group mean (Table 2): 300 nmoles/kg s.c. single dose; for Bone mineral apposition rate, group mean (Table 2): N=4, control 1.48
Experimental: Test peptides were administered by subcutaneous injection to the right gluteal region of the rats after being dissolved in a carrier buffer comprising PBS containing 0.1% heat inactivated BSA at pH 7.4. The dose was 300 nmoles/kg bodyweight in an injection volume of 400 μl.
Male Sprague-Dawley rats from Charles River Laboratory were used. The weight of the animals was approximately 350 g. They were housed in pairs in standard shoebox cages. Purina rat chow and tap water were provided ad libitum. The light/dark cycle was 12 hours, the temperature 22° C. and the humidity 50%. The animals were acclimatized for one week before initiating dosing.
Bone mineral apposition rate as measured for the distal metaphysis of the right femur was the parameter for the assessment of activity. Two doses of tetracycline hydrochloride (Sigma), 24 mg/kg body weight were administered I.M. in an injection volume of 800 μl to the left gluteus maximus muscle. The first dose was given immediately following the administration of the peptide, and the second dose 48 hours later. 24 hours after the second dose of tetracycline, the animals were sacrificed by carbon dioxide narcosis. The right femur was dissected clear of muscles and a 0.5 cm cross section of the bone 1 mm below the upper epiphyseal cartilage was taken and processed undecalcified for histological preparation of […]. Bone mineral apposition rate was measured in 15 randomly selected bone formation sites with two tetracycline labels in the trabecular bone. The arithmetic mean of these 15 sites was taken as the mean bone mineral apposition for the respective animals.
The dose of peptide was dissolved in 400 μl of buffer comprising of PBS with 0.1% of heat inactivated BSA and the method for the determination of bone mineral apposition rate was as described before.
Experimental design: Animals were grouped in four. All groups received a single dose of SEQ ID NO:2 (300 nmoles/kg) subcutaneously injected to the right gluteal region at Day 0 at approximately the same time within 15 minutes. Two doses tetracycline labeling at intervals of 48 hours was used to measure bone mineral apposition rate. The control group received buffer injection only.

Sprague-Dawley rats [2] = test: as above; format: in vivo, rat; design: unit not given here; conditions: Example 2, 300 nmoles/kg s.c., N=3, control 1.18
[3] = Stability of peptides in solution, intact peptide remaining by HPLC peak height; format: physicochemical; conditions: pH 7.4
Experimental: Solvents for test peptides: Milli-Q water filtered through […] filter; resistance—18.2 Mega Ohms
Phosphate buffered saline: pH […] from Gibco (Cat. #100113-023)
20. mM sodium acetate buffer: pH 4.5 prepared with Milli-Q water and filtered through […] filter.
Peptides: The test peptides included those of SEQ ID NOs: 2, 3, 4 & 7.
Peptide preparation: Test peptides were dissolved in either PBS or sodium acetate buffer at a concentration of 0.2 mg per ml. The purity of the test peptides was greater than 95%.
Method for testing stability: Stability of the peptides was examined at pH7.4 and at room temperature, 4° C. and 37° C. The amount of intact peptide remaining over time was compared with the initial intact amount. The quantification of the amount of peptide was based on peak height in an HPLC profile.

| Substance | BONE MINERAL APPOSITION, individual rats (Table 6) (Sprague-Dawley rats [1]) | Effect on bone mineral apposition (Sprague-Dawley rats [1]) | BONE MINERAL APPOSITION, MEAN (Table 6) (Sprague-Dawley rats [1]) [µm/d] | Effect on bone mineral apposition rate versus control (Sprague-Dawley rats [1]; 300 nmoles/kg s.c.) | Bone mineral apposition rate, individual rats (Table 2) (Sprague-Dawley rats [1]) | Bone mineral apposition rate, group mean (Table 2) (Sprague-Dawley rats [1]) | other results |
| --- | --- | --- | --- | --- | --- | --- | --- |
| SEQ ID NO: 5: peptide of SEQ ID NO:7 with a carboxyamidomethyl residue modifying cysteine at the 9-position of the decamer (Ac-RTQEHTAEC(Cam)K-NH2) |  |  |  |  |  |  | Bone mineral apposition rate compared with the prior art peptide of SEQ ID NO: 7 (FIG. 5) (Sprague-Dawley rats [1]; Example 4, 300 nmoles/kg s.c.): significantly greater |
| SEQ ID NO: 8, dimer: dimer form of the peptide with SEQ ID NO: 8 (chain 1 Ac-RTNEHTADCK-NH2; chain 2 Ac-RTNEHTADCK-NH2; not fully specified (bridges); cysteine pairing not given here; also: dimer, linkage not given here) | 1.39 µm/d and 1.43 µm/d and 1.42 µm/d and 1.36 µm/d | significantly inhibit | 1.4 |  |  |  |  |
| K-T-Q-E-F-T-A-E-M-K [SEQ ID NO: 1] |  |  |  |  |  |  | Bone Mineral Apposition Rate, Mean rate (Table 4) (Sprague-Dawley rats [2]): 1.61 |
| Ac-R T Q E H T A E C K —NH2 (Ac-RTQEHTAECK-NH2) [SEQ ID NO: 7, monomer, prior art peptide] | 1.91 µm/d and 1.73 µm/d (2×) and 2.06 µm/d | significantly stimulated | 1.86 | significantly higher than the control group | 2.41 µm/d and 2.54 µm/d and 2.25 µm/d and 2.24 µm/d | 2.36 | Degradation in solution ([3]; 4° C. and room temperature, 6 months): totally degraded; Degradation in solution ([3]; 4° C. and room temperature, over three months): substantial degradation; Degradation in solution ([3]; 37° C., over 3 weeks): substantial degradation |
| SEQ ID NO: 7, dimer: dimerized form of the peptide having SEQ ID NO:7, disulfide bonding between the cysteine residues (chain 1 Ac-RTQEHTAECK-NH2; chain 2 Ac-RTQEHTAECK-NH2; disulfide I:9-II:9; also: disulfide-linked dimer) | 1.29 µm/d and 1.51 µm/d (2×) | significantly inhibit | 1.43 | inhibitory effect | 1.28 µm/d and 1.41 µm/d and 1.5 µm/d and 1.38 µm/d | 1.39 |  |
| Ac-R T N E H T A D C K —NH2 (Ac-RTNEHTADCK-NH2) [SEQ ID NO: 8, monomer] | 2.27 µm/d and 1.78 µm/d and 2.15 µm/d and 2.01 µm/d | significantly stimulated | 2.05 |  |  |  |  |
